# From article PMC4949533, “Optimization of Inhibitors of Mycobacterium tuberculosis Pantothenate Synthetase Based on Group Efficiency Analysis” (Chemmedchem, 2015)
# Read-outs that look alike come from different tables or passages of the source.
# Experiments:
# [1] = target: T1, Mycobacterium tuberculosis pantothenate synthetase (Mycobacterium tuberculosis, UniProt P9WIL4); experiment: isothermal titration calorimetry (ITC); format: binding; details: read-out: K D [μM]^[a]
# T1 construct: gene panC
# T1 sequence (P9WIL4 2-309 limits assumed): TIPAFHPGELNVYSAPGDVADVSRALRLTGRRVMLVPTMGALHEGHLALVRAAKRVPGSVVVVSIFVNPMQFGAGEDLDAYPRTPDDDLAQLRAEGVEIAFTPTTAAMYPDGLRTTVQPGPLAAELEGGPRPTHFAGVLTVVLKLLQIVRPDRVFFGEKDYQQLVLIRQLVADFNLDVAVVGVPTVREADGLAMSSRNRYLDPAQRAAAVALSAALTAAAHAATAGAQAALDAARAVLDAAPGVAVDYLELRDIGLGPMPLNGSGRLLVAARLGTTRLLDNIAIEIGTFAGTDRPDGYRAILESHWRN
# From the text: isothermal titration calorimetry (ITC) on Mycobacterium tuberculosis pantothenate synthetase
# [2] = target: T1, Mycobacterium tuberculosis pantothenate synthetase; experiment: enzyme inhibition assay; format: biochemical
Structure (SMILES),"Kd ([1]; active site, lead compound of the group's earlier work, cited from earlier work)",Kd [1],IC50 [2]
"COc1ccc2c(c1)cc(C(=O)NS(=O)(=O)c1ccc(C)cn1)n2CC(=O)O [compound 5, 5]",1.5 µM,,
"COc1ccc2c(c1)cc(C(=O)NS(=O)(=O)c1ccc(C)cc1)n2CC(=O)O [compound 10, 10]",,0.34 µM,
"COc1ccc2c(c1)cc(C(=O)NS(=O)(=O)c1ccc(C(F)(F)F)cc1)n2CC(=O)O [compound 11, 11]",,0.2 µM,5700 nM
"COc1ccc2c(c1)cc(C(=O)NS(=O)(=O)c1ccc(C(C)(C)C)cc1)n2CC(=O)O [compound 12, 12]",,0.46 µM,
"COc1ccc2c(c1)cc(C(=O)NS(=O)(=O)c1ccc3ccccc3c1)n2CC(=O)O [compound 13, 13]",,0.61 µM,
"COc1ccc2c(c1)cc(C(=O)NS(=O)(=O)c1ccc(C(F)(F)F)cc1[N+](=O)[O-])n2CC(=O)O [compound 14, 14]",,0.8 µM,
"COc1ccc2c(c1)cc(C(=O)NS(=O)(=O)N1CCOCC1)n2CC(=O)O [compound 15, 15]",,3.5 µM,
"COc1ccc2c(c1)cc(C(=O)NS(=O)(=O)N1CCN(C(C)=O)CC1)n2CC(=O)O [compound 16, 16]",,17 µM,
"COc1ccc2c(c1)cc(C(=O)NS(=O)(=O)c1ccc(NC(C)=O)cc1)n2CC(=O)O [compound 18, 18]",,6 µM,
"COc1ccc(S(=O)(=O)NC(=O)c2cc3cc(OC)ccc3n2CC(=O)O)cc1 [compound 19, 19]",,2 µM,
"COc1ccc2c(c1)cc(C(=O)NS(=O)(=O)Cc1ccc(C(F)(F)F)cc1)n2CC(=O)O [compound 20, 20]",,,253 nM
